Laboratory results reported in patent US8664409B2, “Process for the preparation of (poly) aminoalkylaminoacetamide derivatives of epipodophyllotoxin useful for their applications in therapeutics as anticancer agent” (Pierre Fabre Medicament, priority 2007, dated 2014).
Structures can show the parent of a compound that is named as a salt.

melting point	Compound
263 °C	COc1cc(C2c3cc4c(cc3[C@@H](NC(=O)CNCCCCNCCCCNCCCCN)[C@H]3COC(=O)C23)OCO4)cc(OC)c1O (some centres unmarked) (as salt: hydrochloride)
197 °C	COc1cc(C2c3cc4c(cc3[C@@H](NC(=O)CNCCCCNCCCN)[C@H]3COC(=O)C23)OCO4)cc(OC)c1O (some centres unmarked) (as salt: hydrochloride)
